Biological target: T1, TRAP1 enzyme (Homo sapiens, UniProt Q12931)
T1 sequence (Q12931 60-704): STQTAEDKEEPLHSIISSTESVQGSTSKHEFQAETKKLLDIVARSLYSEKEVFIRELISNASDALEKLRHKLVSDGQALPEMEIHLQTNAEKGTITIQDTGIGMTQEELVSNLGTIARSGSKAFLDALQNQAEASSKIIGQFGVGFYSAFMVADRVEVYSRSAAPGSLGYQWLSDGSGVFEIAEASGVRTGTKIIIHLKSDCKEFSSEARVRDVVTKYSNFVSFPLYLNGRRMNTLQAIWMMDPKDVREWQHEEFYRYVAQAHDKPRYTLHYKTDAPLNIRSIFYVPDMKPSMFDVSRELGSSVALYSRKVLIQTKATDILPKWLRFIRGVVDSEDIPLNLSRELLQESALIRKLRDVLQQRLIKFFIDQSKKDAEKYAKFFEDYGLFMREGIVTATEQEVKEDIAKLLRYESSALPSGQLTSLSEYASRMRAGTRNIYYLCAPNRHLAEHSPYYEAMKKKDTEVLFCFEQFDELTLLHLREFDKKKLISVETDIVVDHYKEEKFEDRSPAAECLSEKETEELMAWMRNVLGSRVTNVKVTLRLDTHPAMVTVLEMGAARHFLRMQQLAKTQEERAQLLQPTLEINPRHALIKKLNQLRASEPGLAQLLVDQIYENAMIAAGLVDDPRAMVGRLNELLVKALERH
Assay: ADP Glo assay of TRAP1 ATPase activity
Type: biochemical
Details: for EC50: TRAP1 ATPase activation, 150 nM Trap1, 20 μM ATP, geometric mean, read-out: ADP GLO DRC: GeoMean EC50; for Emax: read-out: ADP GLO DRC: Mean Emax
Outline: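 150 nM TRAP1 preincubated with compound (0.79–100 μM) 30 min at 37° C in Pipes pH 7.5 buffer (0.05 mM MgCl2, 40 mM KCl), then 20 μM ATP added for 60 min at 37° C. ADP quantified by ADP-Glo luminescence against ATP/ADP standard curve. Emax and EC50 from sigmoidal fit.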

Row | Structure (SMILES) | EC50 [µM] | Emax [%]
1 | COc1ccc(NC(=O)c2cccc(-n3ccnc3)c2)cc1S(=O)(=O)Nc1c(C)cccc1C [Compound 1232] | 10 to 20 | 200 to 300
2 | COc1ccc(NC(=O)c2cc(-c3ccccc3)no2)cc1S(=O)(=O)Nc1c(C)cccc1C [Compound 1229] | < 10 | 160 to 199
3 | COc1ccc(NC(=O)c2ccc3cnn(C)c3c2)cc1S(=O)(=O)Nc1c(C)cccc1C [Compound 1370] | 20 to 100 | > 300
4 | COc1ccc(NC(=O)c2ccc3c(c2)n(C)c(=O)n3C)cc1S(=O)(=O)Nc1c(C)cccc1C [Compound 1146] | < 10 | 200 to 300
5 | O=C(Nc1ccc(F)c(S(=O)(=O)Nc2ccc(Cl)cc2)c1)c1cnccc1-c1ccccc1 [Compound 770] | 20 to 100 | 160 to 199
6 | COc1ccc(NC(=O)c2cccnc2SCc2ccccc2)cc1S(=O)(=O)Nc1c(C)cccc1C [Compound 1157] | < 10 | 123 to 159
7 | COc1ccc(NC(=O)c2cc(-n3ccnc3)ccn2)cc1S(=O)(=O)Nc1c(C)cccc1C [Compound 1030] | 10 to 20 | 200 to 300
8 | CCS(=O)(=O)c1ccc(OC)c(C(=O)Nc2ccc(F)c(S(=O)(=O)Nc3ccc(Cl)cc3)c2)c1 [Compound 822] | 10 to 20 | 160 to 199
9 | Cc1c(Br)cncc1C(=O)Nc1ccc(F)c(S(=O)(=O)Nc2ccc(Cl)cc2)c1 [Compound 826] | 20 to 100 | 200 to 300
10 | COc1ccc(NC(=O)c2csc(-c3cc(F)c(F)c(F)c3)n2)cc1S(=O)(=O)Nc1c(C)csc1C [Compound 2406] | < 10 | 123 to 159
11 | COc1ccc(NC(=O)c2cccc3cnccc23)cc1S(=O)(=O)Nc1c(C)cccc1C [Compound 1224] | 20 to 100 | 160 to 199
12 | COc1ccc(NC(=O)c2cccc3c2OC(C)(C)CC3)cc1S(=O)(=O)Nc1c(C)cccc1C [Compound 1040] | < 10 | 200 to 300
13 | COc1ccc(NC(=O)c2cn(C(C)(C)C)nn2)cc1S(=O)(=O)Nc1c(C)cccc1C [Compound 1050] | 20 to 100 | 160 to 199
14 | COc1ccc(NC(=O)c2ccc3c(c2)ncn3C)cc1S(=O)(=O)Nc1c(C)cccc1C [Compound 1228] | 20 to 100 | 123 to 159
15 | Cc1ccc(Sc2ncccc2C(=O)Nc2ccc(F)c(S(=O)(=O)Nc3ccc(Cl)cc3)c2)cc1 [Compound 764] | 10 to 20 | 123 to 159
16 | COc1ccc(NC(=O)c2cccc(-c3cnccn3)c2)cc1S(=O)(=O)Nc1c(C)cccc1C [Compound 1222] | 10 to 20 | 200 to 300
17 | COc1ccc(NC(=O)c2ncc(-c3ccccc3)o2)cc1S(=O)(=O)Nc1c(C)csc1C [Compound 1693] | < 10 | 160 to 199
18 | COc1ccc(NC(=O)c2csc(-c3ccccc3)n2)cc1S(=O)(=O)Nc1c(C)cccc1C [Compound 1116] | < 10 | 160 to 199
19 | COc1ccc(NC(=O)c2ocnc2C(C)C)cc1S(=O)(=O)Nc1ccc(Cl)cc1 [Compound 596] | 10 to 20 | 160 to 199
20 | COc1ccc(NC(=O)c2ncc(-c3ccccc3)o2)cc1S(=O)(=O)Nc1c(C(C)C)ccnc1C(C)C [Compound 1809] | < 10 | 160 to 199
21 | COc1ccc(NC(=O)c2cccc(-n3cnnn3)c2)cc1S(=O)(=O)Nc1c(C)cccc1C [Compound 1259] | 20 to 100 | 123 to 159
22 | COc1ccc(NC(=O)c2cnc(-c3cccnc3OC)[nH]2)cc1S(=O)(=O)Nc1ccc(Cl)cc1 [Compound 1951] | < 10 | 160 to 199
23 | COc1ccc(NC(=O)c2cc(C)cc(F)c2F)cc1S(=O)(=O)Nc1c(C)cccc1C [Compound 1164] | < 10 | 123 to 159
24 | CC(C)(C)OC(=O)c1ccccc1C(=O)Nc1ccc(F)c(S(=O)(=O)Nc2ccc(Cl)cc2)c1 [Compound 694] | 20 to 100 | 123 to 159
25 | COc1ccc(NC(=O)c2cc3ccncc3s2)cc1S(=O)(=O)Nc1c(C)cccc1C [Compound 1043] | < 10 | 200 to 300
26 | COc1ccc(NC(=O)c2cccc(-c3noc(C)n3)c2)cc1S(=O)(=O)Nc1c(C)cccc1C [Compound 1243] | < 10 | 200 to 300
27 | COc1ccc(NC(=O)c2ncc(-c3ccccc3)o2)cc1S(=O)(=O)Nc1sc2c(c1C#N)CCCC2 [Compound 1671] | 10 to 20 | 160 to 199

Row | Structure (SMILES) | EC50 [µM] | Emax [%]
28 | COc1ccc(NC(=O)c2ccoc2C(F)(F)F)cc1S(=O)(=O)Nc1c(C)cccc1C [Compound 1122] | 20 to 100 | 160 to 199
29 | COc1ccc(NC(=O)c2sc(Br)nc2C)cc1S(=O)(=O)Nc1c(C)cccc1C [Compound 1115] | 10 to 20 | 200 to 300
30 | COc1ccc2oc(C(=O)Nc3ccc(OC)c(S(=O)(=O)Nc4c(C)cccc4C)c3)cc2c1 [Compound 1112] | < 10 | 160 to 199
31 | COc1ccc(NC(=O)c2ncc(-c3ccccc3)o2)cc1S(=O)(=O)Nc1c(C#N)cccc1C(F)(F)F [Compound 1343, N-(3-(N-(2-cyano-6-(trifluoromethyl)phenyl)sulfamoyl)-4-methoxyphenyl)-5-phenyloxazole-2-carboxamide] | 20 to 100 | 200 to 300
32 | COc1ccc(NC(=O)c2ncoc2C(C)C)cc1S(=O)(=O)Nc1ccc(Cl)cc1 [Compound 2476] | 10 to 20 | 123 to 159
33 | COc1ccc(NC(=O)c2ccccc2Oc2ccccc2)cc1S(=O)(=O)Nc1c(C)cccc1C [Compound 1234] | < 10 | 160 to 199
34 | Cc1nc(C(=O)Nc2ccc(F)c(S(=O)(=O)Nc3ccc(Cl)cc3)c2)c(C)s1 [Compound 716] | 20 to 100 | 123 to 159
35 | COc1ccc(NC(=O)c2ncc(-c3ccccc3)o2)cc1S(=O)(=O)Nc1cc2ccccc2nn1 [Compound 1825] | 20 to 100 | 160 to 199
36 | COc1ccc(NC(=O)c2sc(-c3cccs3)nc2C)cc1S(=O)(=O)Nc1c(C)cccc1C [Compound 1156] | < 10 | 123 to 159
37 | Cc1ncc(Br)cc1C(=O)Nc1ccc(F)c(S(=O)(=O)Nc2ccc(Cl)cc2)c1 [Compound 795] | 10 to 20 | 160 to 199
38 | O=C(Nc1ccc(F)c(S(=O)(=O)Nc2ccc(Cl)cc2)c1)c1cnccc1C(F)(F)F [Compound 784] | 20 to 100 | 123 to 159
39 | COc1ccc(NC(=O)c2ncn(Cc3ccccc3)n2)cc1S(=O)(=O)Nc1c(C)cccc1C [Compound 1029] | 10 to 20 | > 300
40 | COc1ccc(NC(=O)c2ccc3ncn(C)c3c2)cc1S(=O)(=O)Nc1c(C)cccc1C [Compound 1238] | 20 to 100 | 123 to 159
41 | COc1ccc(NC(=O)c2ncc(OC(F)F)cc2Cl)cc1S(=O)(=O)Nc1c(C)cccc1C [Compound 1127] | 20 to 100 | 123 to 159
42 | COc1ccc(NC(=O)c2ncn(-c3cccc(F)c3)n2)cc1S(=O)(=O)Nc1c(C)cccc1C [Compound 1011] | 20 to 100 | 200 to 300
43 | COc1ccc(NC(=O)c2cccc3ncsc23)cc1S(=O)(=O)Nc1c(C)cccc1C [Compound 1227] | 10 to 20 | 200 to 300
44 | COc1ccc(NC(=O)c2cccc3nccnc23)cc1S(=O)(=O)Nc1c(C)cccc1C [Compound 1251] | 10 to 20 | 160 to 199
45 | COc1ccc(NC(=O)c2c(-c3ccccc3)noc2C)cc1S(=O)(=O)Nc1c(C)cccc1C [Compound 1279] | < 10 | 200 to 300
46 | CCn1nc(C(C)C)cc1C(=O)Nc1ccc(F)c(S(=O)(=O)Nc2ccc(Cl)cc2)c1 [Compound 1282] | 20 to 100 | 123 to 159
47 | COc1ccc(NC(=O)c2ccc(Cn3cc(Cl)cn3)cc2)cc1S(=O)(=O)Nc1c(C)cccc1C [Compound 1237] | < 10 | 160 to 199
48 | COc1ccc(NC(=O)c2cc(N3CCCC3)ccn2)cc1S(=O)(=O)Nc1c(C)cccc1C [Compound 1077] | < 10 | 160 to 199
49 | O=C(Nc1ccc(F)c(S(=O)(=O)Nc2ccc(Cl)cc2)c1)c1csc(N2CCOCC2)n1 [Compound 745] | 20 to 100 | 123 to 159
50 | COc1ccc(NC(=O)c2c[nH]c(-c3c(F)cccc3F)n2)cc1S(=O)(=O)Nc1ccc(Br)cc1 [Compound 1328] | < 10 | 160 to 199
51 | COc1ccc(NC(=O)c2ccc(Br)nc2F)cc1S(=O)(=O)Nc1c(C)cccc1C [Compound 1131] | 20 to 100 | 123 to 159
52 | COc1ccc(NC(=O)c2cc3c(C)nn(C)c3s2)cc1S(=O)(=O)Nc1c(Cl)cccc1Cl [Compound 1375] | 10 to 20 | 160 to 199
53 | O=C(Nc1cccc(S(=O)(=O)Nc2ccc(Cl)cc2)c1)c1ncc(-c2ccccc2)o1 [Compound 438] | 10 to 20 | 123 to 159
54 | COc1ccc(NC(=O)c2c(C(F)(F)F)ccnc2C)cc1S(=O)(=O)Nc1c(C)cccc1C [Compound 1153] | 20 to 100 | 123 to 159

— US20230174523A1, “BENZENESULFONAMIDE DERIVATIVES AS TRAP1 MODULATORS AND USES THEREOF” (Amathus Therapeutics, Inc., priority 2020, published 2023)
